Laboratory results: US9079821B2, “Quinone based nitric oxide donating compounds” (NICOX S.A., priority 2011, dated 2015)
Read-outs that look alike come from different tables or passages of the source.

Columns and labels:
[1] = test system: lipid peroxidation of hepatic microsomal membranes; test: In vitro antioxidant activity (TBARS test), Method B (2.5 μM FeSO4); format: biochemical, rat; details: inhibition of TBARS production, read-out: Antioxidant activity IC50 μM (CL 95%)
Method: The antioxidant properties of compounds (6) (disclosed in example 1) and compound (23) (disclosed in example 19) and reference antioxidant compounds were assessed after NADPH-induced lipidic peroxidation of membrane lipids in rat hepatocytes using the detection of 2-thiobarbituric acid reactive substances (TBARS) by visible spectroscopy. Hepatic microsomal membranes from male Wistar rats (200-250 g) were prepared by differential centrifugation (8000 g, 20 min; 120000 g, 1 h) in a HEPES/sucrose buffer (10 mM, 250 mM, pH 7.4) and stored at −80° C. Incubation was performed at 37° C. in a Tris-HCl/KCl (100 mM/150 mM, pH 7.4) containing microsomal membranes (2 mg prot/mL), sodium ascorbate (100 μM), and DMSO solutions of the tested compounds. Lipid peroxidation was initiated by adding ADP-FeCl3 and NADPH (Method A) or 2.5 μM FeSO4 (Method B) (as described by Boschi D. et al., J. Med. Chem. 2006, 49:2886-2897). Aliquots were taken from the incubation mixture at 5, 15, and 30 min and treated with trichloroacetic acid (TCA) 10% w/v. Lipid peroxidation was assessed by spectrophotometric (543 nm) determination of the TBARS consisting mainly of malondialdehyde (MDA). TBARS concentrations (expressed in nmol/mg protein) were obtained by interpolation with a MDA standard curve. […] IC50 values were calculated by nonlinear regression analysis.

[2] = test system: NADPH-induced lipidic peroxidation of membrane lipids (hepatic microsomal membranes); test: In vitro antioxidant activity (TBARS test), Method A (ADP-FeCl3 and NADPH); format: biochemical, rat; details: inhibition of TBARS production after 30 min incubation, read-out: Antioxidant activity IC50 μM (CL 95%)
Method: The antioxidant properties of compounds (6) (disclosed in example 1) and compound (23) (disclosed in example 19) and reference antioxidant compounds were assessed after NADPH-induced lipidic peroxidation of membrane lipids in rat hepatocytes using the detection of 2-thiobarbituric acid reactive substances (TBARS) by visible spectroscopy.
Hepatic microsomal membranes from male Wistar rats (200-250 g) were prepared by differential centrifugation (8000 g, 20 min; 120000 g, 1 h) in a HEPES/sucrose buffer (10 mM, 250 mM, pH 7.4) and stored at −80° C. Incubation was performed at 37° C. in a Tris-HCl/KCl (100 mM/150 mM, pH 7.4) containing microsomal membranes (2 mg prot/mL), sodium ascorbate (100 μM), and DMSO solutions of the tested compounds. Lipid peroxidation was initiated by adding ADP-FeCl3 and NADPH (Method A) or 2.5 μM FeSO4 (Method B) (as described by Boschi D. et al., J. Med. Chem. 2006, 49:2886-2897). Aliquots were taken from the incubation mixture at 5, 15, and 30 min and treated with trichloroacetic acid (TCA) 10% w/v. Lipid peroxidation was assessed by spectrophotometric (543 nm) determination of the TBARS consisting mainly of malondialdehyde (MDA). TBARS concentrations (expressed in nmol/mg protein) were obtained by interpolation with a MDA standard curve. The antioxidant activity of tested compounds was evaluated as the percent inhibition of TBARS production with respect to control samples, using the values obtained after 30 min of incubation. IC50 values were calculated by nonlinear regression analysis.

[3] = test system: lipid peroxidation of hepatic microsomal membranes; details: Method B; values from Chegaev, K. et al. (footnotes a, b); read-out: Antioxidant activity IC50 μM (CL 95%); cited from earlier work

| Structure (SMILES) | IC50 [2] [µM] | IC50 [3] [µM] | other results |
| --- | --- | --- | --- |
| O=C(O)/C=C/c1ccc(O)c(O)c1 [Caffeic acid] | – | – | IC50 [1]: 33 µM |
| CC1=NN(c2ccccc2)C(=O)C1 [Edavarone] | – | 17 | – |
| COc1ccc2[nH]cc(CCNC(C)=O)c2c1 [Melatonin] | – | 476 | – |

Continued, in another order:

| IC50 [2] [µM] | Structure (SMILES) | IC50 [3] [µM] | other results |
| --- | --- | --- | --- |
| 1.4 | CC1=C(CCCCCCO[N+](=O)[O-])C(=O)c2ccccc2C1=O [Compound (23), 6-(3-methyl-1,4-dioxo-1,4-dihydronaphthalen-2-yl) hexyl nitrate] | – | – |
| 1.6 | COC1=C(OC)C(=O)C(CCCCCCCCCCO)=C(C)C1=O [Idebenone, reference compound] | – | – |
